In patent publication US20240009205A1, “THERAPEUTIC COMBINATION FOR THE TREATMENT OF BREAST CANCER” (IFOM - FONDAZIONE ISTITUTO FIRC DI ONCOLOGIA MOLECOLARE, priority 2020, published 2024):
Read-outs that look alike come from different tables or passages of the source. Each block holds one compound with its values, some of them ahead of it.

Tests used:
[1] = system: EGR1, PTEN and 4E-BP1 levels in MCF7 cells; experiment: immunoblotting of EGR1, PTEN and 4E-BP1 in MCF7; assay type: cell-based, human; conditions: supplementation
Protocol: For protein lysate generation from cultured cells, 5×10^4 MCF7, T47D or ZR-75-1 cells were plated in 6-well plates in CTR medium. After 24 h medium was removed, cells were washed with PBS and incubated either in CTR or STS medium. […] Where indicated, cells were supplemented with insulin ([…]), IGF1 (5 ng/ml), leptin ([…]), or 17β-estradiol (100 nM). 24 h later, cells were washed and protein lysates were generated as described elsewhere^34,35. Protein lysates from primary tumors or mouse uteri were obtained using TissueRuptor (Quiagen). Proteins (35 μg) were separated by SDS-PAGE, transferred to a PVDF membrane (Immobilon-P, Millipore S.p.A.), and detected with the following antibodies: anti-phospho-AKT (Ser473; #4058), anti-AKT (#9272), anti-PTEN (#9552), anti-phospho-p70S6kinase (Thr389; #9206), anti-p70S6kinase (#9202), anti-4E-BP1 (#4923), anti-phospho-eIF4E ([…]; #9741), anti-phospho-RB (Ser807/811; #9308), anti-RB (#9309), anti-CCND1 (#2978) were all from Cell Signaling Technology; anti-phospho-AMPK (Thr172; PA5-2 17831), anti-AMPK (PA5-29679), anti-EGR1 (MA5-15008) were from Thermo Fisher; anti-β-actin was from Santa Cruz Biotechnology. Band intensities were quantified by Quantity One SW software (Bio-Rad Laboratories, Inc.) using standard enhanced chemiluminescence.

[2] = system: ER transcriptional activity; experiment: ER luciferase reporter assay and ER target gene expression; assay type: cell-based, human; conditions: HR+ BC cell lines, TFF1, PGR, GREB1 expression
HR+/HER2− BC cell lines = conditions: cited from earlier work
MCF7 cells [3] = experiment: cell viability assay, control and EGR1-silenced MCF7; assay type: cell-based, human
[4] = system: metastases-derived organoids from patients with HR+ BC; experiment: organoid viability assay; assay type: cell-based, human; conditions: TMX with STS medium
MCF7 cells [5] = experiment: gene expression microarrays and GSEA in MCF7; assay type: cell-based, human; conditions: 5 μM TMX combined with STS

Compound: C[C@]12CC[C@@H]3c4ccc(O)cc4CC[C@H]3[C@@H]1CC[C@@H]2O [17β-estradiol]
- increase in EGR1, PTEN and 4E-BP1 induced by the TMX-STS combination [1]: prevented the increase in EGR1, PTEN and 4E-PBP1

- ER inhibition under STS [2]: enhanced
Compound: C[C@]12CC[C@@H]3c4ccc(O)cc4C[C@@H](CCCCCCCCC[S+]([O-])CCCC(F)(F)C(F)(F)F)[C@H]3[C@@H]1CC[C@@H]2O (stereo partly drawn) [FULV, fulvestrant]
- antitumor activity under STS (low-serum, low-glucose) (HR+/HER2− BC cell lines): increased the antitumor activity

Compound: CC(C)NC[C@@H](C(=O)N1CCN(c2ncnc3c2[C@H](C)C[C@H]3O)CC1)c1ccc(Cl)cc1 [GDC0068]
- protection of EGR1-silenced BC cells from combined ET and STS (MCF7 cells [3]; GDC0068 1 μM, AZD5363 400 nM, LY294002 2 μM): abolished such protection

- ER inhibition under STS [2]: enhanced
Compound: CC/C(=C(\c1ccccc1)c1ccc(OCCN(C)C)cc1)c1ccccc1 [TMX, tamoxifen]
- antitumor activity under STS [4]: increased the antitumor activity
- cell cycle-related gene categories (GSEA) (MCF7 cells [5]): downregulation
- antitumor activity under STS (low-serum, low-glucose) (HR+/HER2− BC cell lines): increased the antitumor activity

Compound: AZD5363
- protection of EGR1-silenced BC cells from combined ET and STS (MCF7 cells [3]): abolished such protection
